Test [1] has as its target T1, Drosophila OR47a (Drosophila melanogaster, UniProt P81921).
T1 construct: expressed in transfected cells
T1 sequence (P81921 1-385): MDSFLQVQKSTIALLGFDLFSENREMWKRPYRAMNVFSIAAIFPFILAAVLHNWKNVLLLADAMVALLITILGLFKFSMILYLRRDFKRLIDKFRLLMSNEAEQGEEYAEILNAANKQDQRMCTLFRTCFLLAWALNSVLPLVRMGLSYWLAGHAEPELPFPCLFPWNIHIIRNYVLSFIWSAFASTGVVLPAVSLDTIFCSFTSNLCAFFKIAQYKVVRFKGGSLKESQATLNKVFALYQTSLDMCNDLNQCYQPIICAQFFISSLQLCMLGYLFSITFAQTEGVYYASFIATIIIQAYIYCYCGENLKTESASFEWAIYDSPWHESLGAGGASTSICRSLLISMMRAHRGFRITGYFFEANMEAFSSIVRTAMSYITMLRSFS
T1 sequence (Q9VNB5 1-486 partner): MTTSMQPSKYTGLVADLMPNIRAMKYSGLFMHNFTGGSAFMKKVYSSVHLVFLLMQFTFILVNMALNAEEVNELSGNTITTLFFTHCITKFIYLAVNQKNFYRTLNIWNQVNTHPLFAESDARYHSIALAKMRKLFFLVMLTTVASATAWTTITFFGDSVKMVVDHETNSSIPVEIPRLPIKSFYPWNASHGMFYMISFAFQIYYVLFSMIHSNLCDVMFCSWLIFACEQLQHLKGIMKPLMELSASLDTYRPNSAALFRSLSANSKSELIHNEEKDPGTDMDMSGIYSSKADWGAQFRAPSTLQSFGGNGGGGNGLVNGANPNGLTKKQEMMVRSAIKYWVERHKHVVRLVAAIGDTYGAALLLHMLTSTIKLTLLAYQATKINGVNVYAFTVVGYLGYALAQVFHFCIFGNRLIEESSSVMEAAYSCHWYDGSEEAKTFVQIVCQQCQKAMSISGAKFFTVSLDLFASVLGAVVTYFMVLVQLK
The test is described as follows: Calcium ion fluorescence (GCaMP6) assay, OR47a stable HEK293 cell line. Format: cell-based. To be noted: for activation at 1 µM / activation at 10 µM / activation at 100 µM: HEK293, read-out: OR47a response (VUAA1-normalized response); for Average response: mean of biological replicates. In outline: (§1)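 HEK293 lines stably expressing each Drosophila OR with GCaMP6, doxycycline-induced (1 μg/mL) 48 or 72 h. Fluorescence recorded 5 s baseline then 30 s after VOC injection at pH 7.3; ΔF=(FMAX−F0)/F0, normalized to 50 µM VUAA1 response per line, triplicate wells averaged; concentration series 0.01–100 μM.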

Test [2] has as its target T2, Drosophila OR10a (Drosophila melanogaster, UniProt Q9VYZ1).
T2 construct: expressed in transfected cells
T2 sequence (Q9VYZ1 1-406): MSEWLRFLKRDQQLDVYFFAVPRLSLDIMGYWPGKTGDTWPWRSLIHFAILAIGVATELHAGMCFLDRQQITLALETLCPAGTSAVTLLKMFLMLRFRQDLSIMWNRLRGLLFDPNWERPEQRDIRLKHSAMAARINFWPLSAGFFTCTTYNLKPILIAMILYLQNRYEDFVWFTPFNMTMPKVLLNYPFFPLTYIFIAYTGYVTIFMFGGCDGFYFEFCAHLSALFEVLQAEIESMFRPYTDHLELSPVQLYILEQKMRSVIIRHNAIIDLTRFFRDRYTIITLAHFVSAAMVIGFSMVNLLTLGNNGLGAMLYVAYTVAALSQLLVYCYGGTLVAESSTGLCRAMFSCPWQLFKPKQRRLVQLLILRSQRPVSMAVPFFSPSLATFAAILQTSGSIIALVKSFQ
T2 sequence (Q9VNB5 1-486 partner): T1 sequence (Q9VNB5 1-486 partner)
The test is described as follows: Calcium ion fluorescence (GCaMP6) assay, OR10a stable HEK293 cell line. Format: cell-based. A digest of the protocol: as §1

The mark [3] stands for this setting: OR47a cell line, odorant cc. 1 µM.
[4] abbreviates: OR47a cell line, odorant cc. 10 µM.
The mark [5] stands for this setting: OR47a cell line, odorant cc. 100 µM.
Where [6] appears, read: concentration 1, normalized fluorescence change, values below 0.05 threshold given as 0.
Where [7] appears, read: concentration 10, normalized fluorescence change, values below 0.05 threshold given as 0.
[8] abbreviates: concentration 100, normalized fluorescence change, values below 0.05 threshold given as 0.
The mark [9] stands for this setting: HEK293, 1 μM VOC, 50 μM VUAA1 = 1, responses not exceeding 0.05 considered 0, read-out: OR10a Average response (VUAA1-normalized).
The mark [10] stands for this setting: HEK293, 10 μM VOC, 50 μM VUAA1 = 1, responses not exceeding 0.05 considered 0, read-out: OR10a Average response (VUAA1-normalized).
The mark [11] stands for this setting: HEK293, 100 μM VOC, 50 μM VUAA1 = 1, responses not exceeding 0.05 considered 0, read-out: OR10a Average response (VUAA1-normalized).
The mark [12] stands for this setting: HEK293, read-out: OR10a response (VUAA1-normalized response), VOC concentration 1 μM.
Where [13] appears, read: HEK293, read-out: OR10a response (VUAA1-normalized response), VOC concentration 10 μM.
[14] abbreviates: HEK293, read-out: OR10a response (VUAA1-normalized response), VOC concentration 100 μM.
Setting [15] is: ligand concentration 1 (unit not given), 0.05 threshold, values below shown as 0.
[16] abbreviates: ligand concentration 10 (unit not given), 0.05 threshold, values below shown as 0.
The mark [17] stands for this setting: ligand concentration 100 (unit not given), 0.05 threshold, values below shown as 0.
Setting [18] is: HEK293, read-out: OR10a Average response (VUAA1-normalized), 1 μM VOC, 50 μM VUAA1 = 1, responses not exceeding 0.05 considered 0.
Where [19] appears, read: HEK293, read-out: OR10a Average response (VUAA1-normalized), 10 μM VOC, 50 μM VUAA1 = 1, responses not exceeding 0.05 considered 0.
The mark [20] stands for this setting: HEK293, read-out: OR10a Average response (VUAA1-normalized), 100 μM VOC, 50 μM VUAA1 = 1, responses not exceeding 0.05 considered 0.
[21] abbreviates: ligand concentration 1 (unit not given), threshold 0.05, below shown as 0.
The mark [22] stands for this setting: ligand concentration 10 (unit not given), threshold 0.05, below shown as 0.
Where [23] appears, read: ligand concentration 100 (unit not given), threshold 0.05, below shown as 0.

Results on six compounds are retold here after PMC10709440, “High-throughput ligand profile characterization in novel cell lines expressing seven heterologous insect olfactory receptors for the detection of volatile plant biomarkers” (Scientific Reports, 2023).

Molecules are shown by their SMILES. Read-outs that look alike come from different tables or passages of the source.

For the compound `COc1cccc(OC)c1` [1,3-dimethoxy benzene], the activation at 1 µM in test [1], in test [2] (setting [9]) and in test [2] (setting [12]) was 0% each time. Further, the activation at 10 µM in test [1], in test [2] (setting [10]) and in test [2] (setting [13]) was 0% throughout. Moreover, the activation at 100 µM in test [1], in test [2] (setting [11]) and in test [2] (setting [14]) was 0% throughout. The Average response in test [1] (setting [3]) is on record as 0.00; in test [1] (setting [4]), 0.00; in test [1] (setting [5]), 0.0217. Moreover, the “DF norm AVERAGE OR47a” value in test [1] (setting [6]), in test [1] (setting [7]) and in test [1] (setting [8]) was 0 throughout. Further, the “DF norm AVERAGE OR10a” value in test [2] came to 0.
On to `C=C(C)C1CCC2(C)OC2C1` (single isomer, unassigned; (+)) [(+)-limonene oxide], for which the Average response in test [1] (setting [3]), in test [1] (setting [4]) and in test [1] (setting [5]) was 0.00 in each case. In addition, the “OR47a response (VUAA1-normalized response)” value in test [1] (VOC concentration 1 μM), in test [1] (VOC concentration 10 μM) and in test [1] (VOC concentration 100 μM) was 0.00 throughout. In addition, the “DF norm AVERAGE OR47a” value in test [1] (setting [6]), in test [1] (setting [7]) and in test [1] (setting [8]) was 0 in each case. Also, the “DF norm AVERAGE OR10a” value in test [2] is given as 0. In addition, the “OR10a Average response (VUAA1-normalized)” value in test [2] (1 μM VOC, 50 μM VUAA1 = 1, responses not exceeding 0.05 considered 0) was 0.00; in test [2] (10 μM VOC, 50 μM VUAA1 = 1, responses not exceeding 0.05 considered 0) it was 0.02; in test [2] (100 μM VOC, 50 μM VUAA1 = 1, responses not exceeding 0.05 considered 0) it was 0.00. Besides, the “OR10a response (VUAA1-normalized response)” value in test [2] (VOC concentration 1 μM), in test [2] (VOC concentration 10 μM) and in test [2] (VOC concentration 100 μM) was 0.00 throughout.
For the compound `Cc1ccccc1` [toluene], the “OR47a response (VUAA1-normalized) at 1 μM” value in test [1] (OR47a cell line, VOC concentration 1 μM) is reported as 0.00. Also, the “OR47a response (VUAA1-normalized) at 10 μM” value in test [1] (OR47a cell line, VOC concentration 10 μM) was determined as 0.00. Also, in test [1] (OR47a cell line, VOC concentration 100 μM), the “OR47a response (VUAA1-normalized) at 100 μM” value worked out at 0.00. The Average response in test [1] (setting [3]) is on record as 0.00; in test [1] (setting [4]), 0.0267; in test [1] (setting [5]), 0.00. For the same compound, the “DF norm AVERAGE OR47a” value in test [1] (setting [15]), in test [1] (setting [16]) and in test [1] (setting [17]) was 0 throughout. In addition, in test [2] (setting [18]), the activation at 1 µM amounted to 3%. The activation at 10 µM in test [2] (setting [19]) amounted to 0%. In test [2] (setting [20]), the activation at 100 µM turned out to be 7%. Besides, the “OR10a response (VUAA1-normalized) at 1 μM” value in test [2] (OR10a cell line, VOC concentration 1 μM) turned out to be 0.00. Further, the “OR10a response (VUAA1-normalized) at 10 μM” value in test [2] (OR10a cell line, VOC concentration 10 μM) is 0.00. Besides, in test [2] (OR10a cell line, VOC concentration 100 μM), the “OR10a response (VUAA1-normalized) at 100 μM” value stood at 0.07. Moreover, the “DF norm AVERAGE OR10a” value in test [2] (setting [15]) turned out to be 0; in test [2] (setting [16]), 0; in test [2] (setting [17]), 0.07043.
Consider `C=C1CC[C@H]2O[C@]2(C)CC[C@@H]2[C@@H]1CC2(C)C` [(-)-caryophyllene oxide], for which the activation at 1 µM in test [1], in test [2] (setting [18]) and in test [2] (setting [12]) was 0% each time. In addition, the activation at 10 µM in test [1], in test [2] (setting [19]) and in test [2] (setting [13]) was 0% each time. For the same compound, the activation at 100 µM in test [1], in test [2] (setting [20]) and in test [2] (setting [14]) was 0% in each case. Besides, the Average response in test [1] (setting [3]), in test [1] (setting [4]) and in test [1] (setting [5]) was 0.00 each time. Moreover, the “DF norm AVERAGE OR47a” value in test [1] (setting [6]), in test [1] (setting [7]) and in test [1] (setting [8]) was 0 each time. For the same compound, the “DF norm AVERAGE OR10a” value in test [2] (setting [6]), in test [2] (setting [7]) and in test [2] (setting [8]) was 0 throughout.
On to `C=CCc1ccc(O)c(OC)c1` [eugenol], for which the activation at 1 µM in test [1] was 0%; in test [2] (setting [9]) it was 8.49%; in test [2] (setting [12]), 8.49%. Further, the activation at 10 µM in test [1] is 0%; in test [2] (setting [10]) it was 6%; in test [2] (setting [13]) it was 6%. Moreover, the activation at 100 µM in test [1], in test [2] (setting [11]) and in test [2] (setting [14]) was 0% each time. The values for the Average response in test [1] (setting [3]), in test [1] (setting [4]) and in test [1] (setting [5]) were 0.00, 0.0283 and 0.0436, respectively. Moreover, the “DF norm AVERAGE OR47a” value in test [1] (setting [21]), in test [1] (setting [22]) and in test [1] (setting [23]) was 0 each time. Moreover, the “DF norm AVERAGE OR10a” value in test [2] (setting [21]) turned out to be 0.08485; in test [2] (setting [22]), 0.05743; in test [2] (setting [23]) it was 0.
Regarding `O=Cc1ccccc1` [benzaldehyde], the activation at 1 µM in test [1], in test [2] (setting [9]) and in test [2] (setting [12]) was 0% in each case. In addition, the activation at 10 µM in test [1] stood at 0%; in test [2] (setting [10]) it was 4%; in test [2] (setting [13]), 0%. Also, the results for the activation at 100 µM in test [1], in test [2] (setting [11]) and in test [2] (setting [14]) were 0%, 17% and 17%, respectively. Moreover, the Average response in test [1] (setting [3]) came to 0.03; in test [1] (setting [4]) it was 0.00; in test [1] (setting [5]), 0.00. The “DF norm AVERAGE OR47a” value in test [1] (setting [21]), in test [1] (setting [22]) and in test [1] (setting [23]) was 0 throughout. In addition, the “DF norm AVERAGE OR10a” value was determined as 0 in test [2] (setting [21]), 0 in test [2] (setting [22]) and 0.1697 in test [2] (setting [23]).
